Data on 1 compound can be found in US20250360210A1, “IMMUNOEFFECTOR CELLS DERIVED FROM INDUCED PLURIPOTENT STEM CELLS GENETICALLY ENGINEERED WITH MEMBRANE BOUND IL12 AND USES THEREOF” (Century Therapeutics, Inc., priority 2022, published 2025).

This data set concerns the target T1, ADAM17 (Homo sapiens, UniProt P78536).
T1 construct: endogenous in cells; host or cells: iPSCs engineered with p1514 (ADAM17-cleavable membrane-tethered IL12 transgene at the AAVS1 locus)
The data set can be described thus: Flow cytometry for IL12 on the surface of p1514-engineered iPSCs after incubation with TAPI-1. The class given is cell-based. The settings on record: concentrations lower than 50 uM. The procedure:
To confirm expression in cells engineered with the ADAM17 cleavable membrane tethered IL12 (p1514; FIG. 1B), the iPSCs were incubated with different concentrations of the ADAM17 inhibitor TAPI-1 and then analyzed by flow cytometry for IL12 detection on the surface of the engineered iPSCs.
Lower concentrations had no effect on cell health or tmIL12 detection)
(In general: In flow cytometry, cells or beads pass a laser one at a time.)

T1 sequence (P78536 215-824): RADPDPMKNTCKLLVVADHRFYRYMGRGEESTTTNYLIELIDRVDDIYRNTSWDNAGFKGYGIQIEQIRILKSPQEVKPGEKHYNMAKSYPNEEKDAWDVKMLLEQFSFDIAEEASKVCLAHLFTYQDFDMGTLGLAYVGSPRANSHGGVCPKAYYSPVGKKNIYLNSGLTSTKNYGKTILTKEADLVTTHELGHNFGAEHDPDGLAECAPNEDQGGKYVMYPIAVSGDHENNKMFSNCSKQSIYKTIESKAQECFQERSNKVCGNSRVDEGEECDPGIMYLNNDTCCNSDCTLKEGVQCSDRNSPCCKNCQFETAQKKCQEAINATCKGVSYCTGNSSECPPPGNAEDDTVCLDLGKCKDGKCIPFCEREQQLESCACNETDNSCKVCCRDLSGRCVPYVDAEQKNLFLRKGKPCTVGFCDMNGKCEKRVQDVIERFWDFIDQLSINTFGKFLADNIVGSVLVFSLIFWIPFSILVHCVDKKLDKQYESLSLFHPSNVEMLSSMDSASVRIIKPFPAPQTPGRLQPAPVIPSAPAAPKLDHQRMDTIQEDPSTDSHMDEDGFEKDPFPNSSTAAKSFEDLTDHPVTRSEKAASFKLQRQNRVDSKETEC

Regarding `CC(C)C[C@H](CC(=O)NO)C(=O)N[C@@H](Cc1ccc2ccccc2c1)C(=O)N[C@@H](C)C(=O)NCCN` [TAPI-1], the “tmIL12 detection on surface of engineered iPSCs” value is “no effect”. Also, the cell health entry (engineered iPSCs) was “no effect”.
